In ChEMBL document CHEMBL1157539, “Thousands of chemical starting points for antimalarial lead identification” (Nature, 2010):

System: Plasmodium falciparum
Assay: GSK_TCMDC: Inhibition of Plasmodium falciparum 3D7 in whole erythrocytes, using parasite LDH activity as an index of growth.
Type: functional, organism-based
Conditions: Plasmodium falciparum, 3D7

Row | SMILES | XC50 [nM]
1 | CN(C(=O)Cc1ccc(Cl)c(Cl)c1)C1CCN(CCCCCNC(=O)/C=C/c2ccc(Cl)c(Cl)c2)CC1 | 739
2 | CS(=O)(=O)NCCCNCc1ccc(-c2cccc(-c3nc4cc(F)ccc4[nH]3)c2)cc1 | 804
3 | N=C1N=C(N)NC2(CCCCC2)N1OCCCOc1cc(Cl)c(Cl)cc1Cl | 3.2
4 | Cc1[nH]cnc1-c1cccc(NC(=O)c2cc3ccccc3s2)c1 | 210
5 | CC(COc1ccc2c(c1)OC(C)(C)CC2c1ccccc1)NCC(O)c1cccc(Cl)c1 (stereo not drawn) | 752
6 | COc1cc(C(=O)N2CCOC(CCN3CCC(c4ccc(Cl)cc4)CC3)(c3ccc(Cl)c(Cl)c3)C2)cc(OC)c1OC (stereo not drawn) | 179
7 | CC(Cc1ccc(NC(=O)COc2ccc(CC(C)NCCc3cccc(Cl)c3)cc2)cc1)NCCc1cccc(Cl)c1 (stereo not drawn) | 84.3
8 | O=C(N[C@@H](Cc1ccccc1)C(=O)NCCN1CCCCC1)c1ccc(O)c(-c2cccc(C(F)(F)F)c2)c1 | 850
9 | N=C(N)c1cc(Br)cc(NC(=O)Nc2cc(Br)cc(C(=N)N)c2)c1 | 819
10 | CC(C)C[C@H](NC(=O)c1cc(-c2ccc(C(C)(C)C)cc2)no1)C(=O)O.CC(C)C[C@H](NC(=O)c1conc1-c1ccc(C(C)(C)C)cc1)C(=O)O | 186
11 | O=P(O)(O)Oc1c(Br)cc(Br)cc1-c1cc(Br)cc(Br)c1O [BROMOFENOFOS] | 173
12 | O=C(NC(=O)c1ccccc1)NC1CCN(c2ccnc3cc(Cl)ccc23)C1 (stereo not drawn) | 584
13 | O=C(COc1ccc(Cl)c(Cl)c1)NCCCCCN1CCCN(C(=O)Nc2cc(Cl)cc(Cl)c2)CC1 | 1140
14 | C=CCOC(=O)N1CCC(CNCc2ccc(-c3ccc(-c4nc5cc(C(F)(F)F)ccc5[nH]4)cc3)cc2)C1 (stereo not drawn) | 150
15 | Cc1[nH]c(C)c(-c2ccc(OCc3cc(C(F)(F)F)cc(C(F)(F)F)c3)nc2)c(=O)c1Br | 152
16 | c1ccc(CN2CCc3cc4nccc(N5CCNCC5)c4cc32)cc1 | 400
17 | CN1C(=C2SC(=Nc3ccc4ncccc4c3)N(Cc3ccccc3)C2=O)Sc2ccc(Cl)cc21 | 1060
18 | Nc1ccnc2ccc(NC(=O)CCCCCc3ccccc3)cc12 | 860
19 | COc1cc(C2Nc3ccc4ccccc4c3C3=C2C(=O)CC(C)(C)C3)ccc1Oc1ccc([N+](=O)[O-])cc1C#N (stereo not drawn) | 662
20 | CC(C)C[C@H](NC(=O)c1cc2ccccc2s1)C(=O)N[C@H]1CCN(Cc2ccc(OC[C@@H]3CCCN3C)c3ccccc23)C1 | 1160
21 | COCCNCc1cccc(-c2ccccc2CN(C(=O)c2ccc3c(c2)OCO3)c2ccc(OC)cc2)c1 | 1110
22 | Nc1nc(N)c2cc(N(Cc3ccccc3)Cc3ccccc3)ccc2n1 | 612
23 | COc1nc2c(CCN3CC[C@H](NCc4cc(C#N)c5c(c4)CCO5)[C@H](O)C3)ccnc2cc1F | 350
24 | O=C(/C=C/c1cc([N+](=O)[O-])ccc1Cl)NC1CCC(CN2CCC(c3c[nH]c4ccccc34)CC2)CC1 (stereo not drawn) | 740

Row | SMILES | XC50 [nM]
25 | CC(C)CN1CCCN(Cc2cccc(NC(=O)c3ccc(Cl)c(Cl)c3)c2)CC1 | 893
26 | CCNc1cc(C(=O)N[C@@H](Cc2ccccc2)[C@H](O)CNCCC(C)c2ccccc2)cc(N2CCCC2=O)c1 (stereo partly drawn) | 511
27 | O=C1CCCN1CCCNCc1ccc(-c2ccc(-c3nc4cc(F)ccc4[nH]3)s2)cc1 | 896
28 | c1ccc(CNc2nc(NCCc3c[nH]cn3)nc(N3CCCC4CCCCC43)n2)cc1 (stereo not drawn) | 834
29 | O=[N+]([O-])c1ccc(Nc2nc(N/N=C/c3ccc(-c4ccc([N+](=O)[O-])cc4)o3)nc(Nc3ccccc3)n2)cc1 | 640
30 | O=C(NC1CCC(N2CCC(O)(c3ccc(F)cc3)CC2)CC1)c1cc2ccccc2[nH]1 (stereo not drawn) | 736
31 | NCCCNc1ccc(-c2ccc(NC(=O)Nc3cc(C(F)(F)F)ccc3F)cc2)cn1 | 837
32 | CCN(CC)c1nc(Nc2cc(C)ccc2C)nc(Nc2ccccc2O)n1 | 641
33 | C=CCN1C(=O)CN(S(=O)(=O)c2ccc(-n3nc(C)cc3C)cc2)C1=S | 941
34 | N=C(/N=C(/NCCCCCCN/C(=N\C(=N)Nc1ccc(Cl)cc1)N1CCOCC1)N1CCOCC1)Nc1ccc(Cl)cc1 | 713
35 | CCN(CCCN1CCCCC1)c1cc(C)nc(Nc2ccc(Oc3ccccc3)cc2)n1 | 298
36 | CC(=O)Nc1ccc([N+](=O)[O-])c2c(Br)cccc12 | 636
37 | O=C(Nc1cccc(-c2ccc(-c3nc4cc(F)ccc4[nH]3)cc2)c1)c1ccoc1 | 962
38 | CCNC(=O)Nc1ccc(-c2ccc(-c3nc4cccc(C)c4[nH]3)s2)cc1 | 1070
39 | Cc1ccc2nc(C)n(C3CCN(C(=O)C4(c5ccccc5)CC4)CC3)c2c1 | 821
40 | C[C@@H]1CC[C@H](NC(=O)[C@H](CC2CCCC2)NC(=O)N2CCNCC2)C(=O)CN1S(=O)(=O)c1ccccn1 | 891
41 | COCCCn1c(=N)c(C(=O)NCCc2ccc(OC)cc2)cc2c(=O)n3cccc(C)c3nc21 | 1030
42 | Cc1ccc(C(NC(=O)Cc2ccccc2)c2ccc3cccnc3c2O)cc1 (stereo not drawn) | 623
43 | Cc1cccc2nc(-c3cccc(-c4cccc(CNCCCN5CCCC5=O)c4)c3)[nH]c12 | 743
44 | COc1ccc(Cl)cc1NC(=O)Nc1ccnc2ccccc12 | 675
45 | COc1cc(Cc2cnc(N)nc2N)cc(CC(C)O)c1O (stereo not drawn) | 843
46 | COC1CCC(C(=O)Nc2ccc(-c3cccc(-c4nc5cc(C(F)(F)F)ccc5[nH]4)c3)cc2)CC1 (stereo not drawn) | 547
47 | COc1ccc2c(NN=Cc3ccccc3)ccnc2c1 | 130
48 | O=C(/C=C/c1ccc(Cl)c(Cl)c1)NCCCCCN1CCCN(C(=S)Nc2ccc(Cl)c(Cl)c2)CC1 | 869
